What all share (assay): NCI anticancer screen, dose series, 48 h
The test system of assay [1] is OVCAR-3.
The test system of assay [2] is 786-0.
In assay [3] the test system is T47D.
Assay [4] has as its system SF-268.
Assay [5] deals with SK-OV-3.
Assay [6] deals with CCRF-CEM.
Assay [7] deals with HOP-92.
The subject of assay [8] is OVCAR-4.
The test system of assay [9] is SK-MEL-5.
Assay [10] has as its system NCI-H226.
Assay [11] has as its system HCT-116.
Assay [12] concerns LXFL 529.
The test system of assay [13] is SW-620.
The subject of assay [14] is U-251.
For assay [15], the system named is NCI/ADR-RES.
Assay [16] relates to HCT-15.
The subject of assay [17] is SR.
For assay [18], the system named is TK-10.
Assay [19] has as its system NCI-H460.
The subject of assay [20] is HOP-62.

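Protocol summary: plate cells (96-well), add compound at 5 concentrations, incubate 48 h, interpolate endpoints linearly. Abbreviation: GI50, concentration required for 50% inhibition of growth.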 Active and inactive are the calls of the source. No stated cut-off is given here; in the data, active = GI50 up to about 1.1 µM and inactive = higher.

On to `N#CC(C#N)=C(N)/C(C#N)=C/c1cc(O)c(O)c(Br)c1`, for which the GI50 in [1] is 27.5 µM (inactive); in [2] it was > 78.2 µM (inactive); in assay [3] it was 32.7 µM (inactive); in [4], > 62.5 µM (inactive); in [5], > 93.1 µM (inactive); in assay [6] it was 28.2 µM (inactive). The GI50 in [7] is 46 µM (inactive); in [8], 38.6 µM (inactive); in [9], 60.3 µM (inactive); in assay [10], 21.1 µM (inactive); in [11] it was 37.8 µM (inactive); in assay [12], 44.9 µM (inactive). In addition, the GI50 in [13] was 51.6 µM (inactive); in assay [14], 53 µM (inactive); in [15], 36.4 µM (inactive); in assay [16], 48.8 µM; in assay [17], 37.8 µM (inactive); in assay [18] it was > 100 µM (inactive). The GI50 was 38.1 µM (inactive) in assay [19] and > 69.7 µM (inactive) in assay [20].

These data come from ChEMBL document CHEMBL1201862, “PubChem BioAssay data set” (2004).
